Measured values reported in US4594340A, “25,26-dehydro-1α,24R-dihydroxycholecalciferol and 25,26-dehydro-1α,24S-dihydroxycholecalciferol and the epimeric mixture” (Hoffmann-La Roche Inc., priority 1984, dated 1986).

Key:
HL-60 cells [1] = assay: Differentiation of HL-60 cells by phagocytosis; assay type: cell-based, human (patient)
Protocol: (§1) Cultures of HL-60 cells were established in the absence (control) or presence of various concentrations of the test compound. […] Proliferation was assessed by directly enumerating the increased number of tumor cells resulting from incubation. Viability was determined by dye exclusion technique to learn whether any of the compounds were lethal to cultured HL-60 cells. Cellular differentiation was evaluated by determining the number of cells which had acquired the enzymes necessary to support a respiratory burst and the functional ability to phagocytose (bind/internalize) particulate material from their environment; both activities being characteristic of mature macrophages and granulocytes,
Tissure culture medium used in these experiments was RPM1-1640 supplemented prior to use to 10% v/v with fetal bovine serum (heat inactivated at 56° for 30 minutes), to 130 units per ml with penicillin and 130 μg per ml with streptomycin, and to an additional 1.6 millimolar with L-glutamine.
(§2) Experimental compounds were dissolved in sufficient ethanol to yield stock solutions of 1×10^-2 molar. Reduced lighting was employed when working with compounds and stock solutions were stored in the dark at -20° in an argon atmosphere. Compounds were diluted with tissue culture medium and added to flasks containing HL-60 cells to achieve the final concentrations described in each experiment.
(§3) The promyelocytic (HL-60) tumor cell line was derived from a patient with acute promyelocytic leukemia. HL-60 cells were maintained in liquid culture by serial weekly passage in tissue culture medium. In any experiment, three replicate flasks were incubated without compound (control) or in the presence of varying concentrations of compound. […]
Quantitation of differentiated HL-60 cells on a functional basis was done by enumerating the number of cells in any sample which had acquired the ability to phagocytose (bind/internalize) particulate material from their environment, a characteristic of mature macrophages and granulocytes. Sufficient cells were pooled from replicate cultures, centrifuged at 200×g, washed once with serum-free tissue culture medium, and resuspended to 1×10^6 cells per ml in serum-free tissue culture medium. To a 1.0 ml sample in 12×75 mm tubes was added 0.1 ml of a 1:10 dilution from stock of fluorescent microspheres obtained as a gift from Dr. William Dreyer at the California Institute of Technology. Latex beads, yeast cells or red blood cells may also be used in place of fluorescent microsphere in this step. Cells and particle were mixed, incubated for 15 minutes in a 37° water bath, collected in a transfer pipet, and overlayed onto a 5 ml cushion of fetal bovine serum in a 15 ml conical culture tube. After centrifugation at 150×g for 8 minutes, the excess particulate (upper layer) was discarded as was the remainder of the serum cushion leaving only a cell pellet and cell-associated particulate. The resultant pellets were resuspended in 1.0 ml of tissue culture medium containing 10% fetal bovine serum, transferred to a hemacytometer, and evaluated microscopically using both ultraviolet and visible light sources. Undifferentiated and differentiated cells present in any sample were determined microscopically by surveying 200-400 cells per sample. Non-fluorescent cells, identified only by visible light, were judged to be undifferentiated. Generally, differentiated cells were intensely fluorescent clearly indicating extensive phagocytosis of particulate material. Results are expressed as the percentage of differentiated cells present in any sample as calculated according to the formula: [formula]

[2] = Antirachitogenic increase in tibia ash in chicks on vitamin D-deficient diet; assay type: in vivo, chick (White Leghorn cockerels)
Protocol: **Oneday-old White Leghorn cockerels were placed on a vitamin Ddeficient
diet which contained 1% calcium and 0.7% phosphorus and were housed under
ultravioletfree lighting (General Electric F40G0 gold fluorescent lights)
The test compound was dissolved in propylene glycol and administered
orally in a volume of 0.2 ml/day for 21 consecutive days. Controls were
treated with vehicle alone. Chicks were autopsied on the day after the […]

HL-60 cells [3] = assay: Differentiation of HL-60 cells by nitroblue tetrazolium (NBT) reduction; assay type: cell-based, human (patient)
Protocol: as §1, §2, §3
Quantitation of differentiated cells was done by the biochemical method of nitroblue tetrazolium (NBT) reduction. Sufficient cells were pooled from replicate cultures, centrifuged at 220×g, washed once with serum-free tissue culture medium, and resuspended to 1×10^6 cells per ml in Ca^++ --Mg^++ -deficient phosphate buffered saline (prepared by supplementing Ca^++ --Mg^++ -free phosphate buffered saline (PBS) to 10% v/v with heat-inactivated fetal bovine serum). Nitroblue tetrazolium was dissolved at 1 mg per ml in Ca^++ --Mg^++ -deficient PBS with gentle heating and mixing. Tetradecanoyl phorbol acetate (TPA) was dissolved at 1 mg per ml in ethanol and stored at -20° C. Just prior to use, a working solution of TPA was prepared by diluting the stock concentration 100-fold with Ca^++ --Mg^++ -deficient PBS. The test was done in 12×75 mm tubes by adding 0.5 ml Ca^++ --Mg^++ -deficient PBS, 1.0 ml of HL-60 cells, 0.5 ml of NBT solution, and 0.02 ml of the working TPA solution. After mixing, the tubes were incubated in a 37° water bath for 25 minutes then transferred to ice. Undifferentiated and differentiated cells present in any sample were determined microscopically by surveying 200-400 cells per sample or by cytofluorograph by surveying greater than 30,000 cells. Cells without pigmented granules (clear cells) were judged to be undifferentiated while those containing greater than 3 blue-black formazan granules were scored as differentiated. […] Results are expressed as the percentage of differentiated cells present in any sample as calculated according to the formula: [formula]

C=C(C)[C@H](O)CC[C@@H](C)[C@H]1CC[C@H]2/C(=C/C=C3/C[C@@H](O)C[C@H](O)C3=C)CCC[C@]12C [25,26-dehydro-1α,24R-dihydroxycholecalciferol]
% diff. (Phagocytosis) (HL-60 cells [1]; 5 × 10^-9 molar, day 3): 7% | diff. cells / total (Phagocytosis) (HL-60 cells [1]; 5 × 10^-9 molar, day 3): 24/329 | % diff. (Phagocytosis) (HL-60 cells [1]; 5 × 10^-9 molar, day 4): 10% | diff. cells / total (Phagocytosis) (HL-60 cells [1]; 5 × 10^-9 molar, day 4): 22/223 | % diff. (Phagocytosis) (HL-60 cells [1]; 5 × 10^-9 molar, day 6): 16% | diff. cells / total (Phagocytosis) (HL-60 cells [1]; 5 × 10^-9 molar, day 6): 45/290 | % diff. (Phagocytosis) (HL-60 cells [1]; 15 × 10^-9 molar, day 3): 24% | diff. cells / total (Phagocytosis) (HL-60 cells [1]; 15 × 10^-9 molar, day 3): 76/324 | % diff. (Phagocytosis) (HL-60 cells [1]; 15 × 10^-9 molar, day 4): 29% | diff. cells / total (Phagocytosis) (HL-60 cells [1]; 15 × 10^-9 molar, day 4): 96/332 | % diff. (Phagocytosis) (HL-60 cells [1]; 15 × 10^-9 molar, day 6): 25% | diff. cells / total (Phagocytosis) (HL-60 cells [1]; 15 × 10^-9 molar, day 6): 83/333 | % diff. (Phagocytosis) (HL-60 cells [1]; 45 × 10^-9 molar, day 3): 53% | diff. cells / total (Phagocytosis) (HL-60 cells [1]; 45 × 10^-9 molar, day 3): 174/329 | % diff. (Phagocytosis) (HL-60 cells [1]; 45 × 10^-9 molar, day 4): 70% | diff. cells / total (Phagocytosis) (HL-60 cells [1]; 45 × 10^-9 molar, day 4): 206/296 | % diff. (Phagocytosis) (HL-60 cells [1]; 45 × 10^-9 molar, day 6): 79% | diff. cells / total (Phagocytosis) (HL-60 cells [1]; 45 × 10^-9 molar, day 6): 176/223 | % diff. (Phagocytosis) (HL-60 cells [1]; 90 × 10^-9 molar, day 3): 69% | diff. cells / total (Phagocytosis) (HL-60 cells [1]; 90 × 10^-9 molar, day 3): 181/261 | % diff. (Phagocytosis) (HL-60 cells [1]; 90 × 10^-9 molar, day 4): 86% | diff. cells / total (Phagocytosis) (HL-60 cells [1]; 90 × 10^-9 molar, day 4): 219/255 | % diff. (Phagocytosis) (HL-60 cells [1]; 90 × 10^-9 molar, day 6): 96% | diff. cells / total (Phagocytosis) (HL-60 cells [1]; 90 × 10^-9 molar, day 6): 200/218 | cells capable of phagocytosis (HL-60 cells [1]; compared with control cultures): dose-related increase in the proportion of cells capable of phagocytosis | Antirachitogenic Increase in Tibia Ash in Chicks ([2]; 300 ng, orally, 21 consecutive days): 20% | potential for hypercalcemia ([2]; than for 1α,25-dihydroxycholecalciferol, as indicated by increase in tibia ash weight in chicks): much less | induction of cellular differentiation (NBT reduction) (HL-60 cells [3]; 5, 15, 45 or 90×10^-9 molar, all incubation times): increasing proportions of differentiated cells at all incubation times | % diff. (NBT reduction) (HL-60 cells [3]; 5 × 10^-9 molar, day 3): 5% | diff. cells / total (NBT reduction) (HL-60 cells [3]; 5 × 10^-9 molar, day 3): 2443/44545 | % diff. (NBT reduction) (HL-60 cells [3]; 5 × 10^-9 molar, day 4): 8% | diff. cells / total (NBT reduction) (HL-60 cells [3]; 5 × 10^-9 molar, day 4): 3401/42923 | % diff. (NBT reduction) (HL-60 cells [3]; 5 × 10^-9 molar, day 6): 7% | diff. cells / total (NBT reduction) (HL-60 cells [3]; 5 × 10^-9 molar, day 6): 3179/47638 | % diff. (NBT reduction) (HL-60 cells [3]; 15 × 10^-9 molar, day 3): 22% | diff. cells / total (NBT reduction) (HL-60 cells [3]; 15 × 10^-9 molar, day 3): 8971/40398 | % diff. (NBT reduction) (HL-60 cells [3]; 15 × 10^-9 molar, day 4): 23% | diff. cells / total (NBT reduction) (HL-60 cells [3]; 15 × 10^-9 molar, day 4): 9489/40666 | % diff. (NBT reduction) (HL-60 cells [3]; 15 × 10^-9 molar, day 6): 17% | diff. cells / total (NBT reduction) (HL-60 cells [3]; 15 × 10^-9 molar, day 6): 8167/47032 | % diff. (NBT reduction) (HL-60 cells [3]; 45 × 10^-9 molar, day 3): 49% | diff. cells / total (NBT reduction) (HL-60 cells [3]; 45 × 10^-9 molar, day 3): 14932/30509 | % diff. (NBT reduction) (HL-60 cells [3]; 45 × 10^-9 molar, day 4): 60% | diff. cells / total (NBT reduction) (HL-60 cells [3]; 45 × 10^-9 molar, day 4): 20003/33311 | % diff. (NBT reduction) (HL-60 cells [3]; 45 × 10^-9 molar, day 6): 63% | diff. cells / total (NBT reduction) (HL-60 cells [3]; 45 × 10^-9 molar, day 6): 22787/36263 | % diff. (NBT reduction) (HL-60 cells [3]; 90 × 10^-9 molar, day 3): 62% | diff. cells / total (NBT reduction) (HL-60 cells [3]; 90 × 10^-9 molar, day 3): 29458/47866 | % diff. (NBT reduction) (HL-60 cells [3]; 90 × 10^-9 molar, day 4): 73% | diff. cells / total (NBT reduction) (HL-60 cells [3]; 90 × 10^-9 molar, day 4): 30230/41142 | % diff. (NBT reduction) (HL-60 cells [3]; 90 × 10^-9 molar, day 6): 79% | diff. cells / total (NBT reduction) (HL-60 cells [3]; 90 × 10^-9 molar, day 6): 35708/45388 | EC50 (HL-60 cells [3]; Homo sapiens, 96 h, HL-60 cells, NBT test, read-out: HL-60 Test Differentiation NBT Test ED50): 0.03 µM | induction of cellular differentiation (HL-60 cells [3]; compared with 1α,25-dihydroxycholecalciferol): induced cellular differentiation in a dose dependent fashion | potency relative to 1α,25-dihydroxycholecalciferol (cellular differentiation) (HL-60 cells [3]; of that of 1α,25-dihydroxycholecalciferol): 40%
